Kb and Ki data for 14 compounds are collected here from ChEMBL document CHEMBL2439953, “Dimeric argininamide-type neuropeptide Y receptor antagonists: chiral discrimination between Y1 and Y4 receptors” (Bioorg Med Chem, 2013).

For orientation: Kb means the equilibrium dissociation constant of an antagonist, usually derived from a functional assay. Usually Ki stands for a measure of affinity in units of concentration, obtained from inhibition or displacement. The low end stands for tighter binding, the high end for weaker binding.

Assay [1] addresses T1, Neuropeptide Y receptor type 4 (Homo sapiens, UniProt P50391). As to the kind of experiment: Antagonist activity at human neuropeptide Y receptor type 4 expressed in CHO cells co-expressing Gqi5-mtAEQ assessed as inhibition of hPP-induced calcium mobilization by Aequorin assay. In kind it is functional, cell-based. (A change in cytosolic calcium serves as a functional read-out for many receptors and channels.)

Assay [2] addresses T2, Neuropeptide Y receptor type 1 (Homo sapiens) (UniProt P25929).
T2 sequence (whole entry): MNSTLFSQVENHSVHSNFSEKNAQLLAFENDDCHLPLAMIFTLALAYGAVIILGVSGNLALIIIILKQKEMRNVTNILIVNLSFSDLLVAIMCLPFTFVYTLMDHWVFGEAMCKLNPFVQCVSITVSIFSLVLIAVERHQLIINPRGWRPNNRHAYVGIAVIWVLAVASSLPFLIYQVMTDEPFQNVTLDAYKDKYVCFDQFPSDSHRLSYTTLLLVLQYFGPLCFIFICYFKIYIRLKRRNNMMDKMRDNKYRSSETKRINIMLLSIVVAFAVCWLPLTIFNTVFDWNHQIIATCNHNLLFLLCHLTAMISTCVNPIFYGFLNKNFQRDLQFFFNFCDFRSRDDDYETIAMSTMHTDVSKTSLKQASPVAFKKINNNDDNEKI
As to the kind of experiment: Antagonist activity at neuropeptide Y receptor type 1 in HEL assessed as inhibition of pNPY-induced calcium mobilization by Fura-2 calcium assay. Type of assay: functional.

Assay [3] has as its target T3, Neuropeptide Y receptor type 5 (Homo sapiens, UniProt Q15761).
T3 sequence (Q15761 whole entry): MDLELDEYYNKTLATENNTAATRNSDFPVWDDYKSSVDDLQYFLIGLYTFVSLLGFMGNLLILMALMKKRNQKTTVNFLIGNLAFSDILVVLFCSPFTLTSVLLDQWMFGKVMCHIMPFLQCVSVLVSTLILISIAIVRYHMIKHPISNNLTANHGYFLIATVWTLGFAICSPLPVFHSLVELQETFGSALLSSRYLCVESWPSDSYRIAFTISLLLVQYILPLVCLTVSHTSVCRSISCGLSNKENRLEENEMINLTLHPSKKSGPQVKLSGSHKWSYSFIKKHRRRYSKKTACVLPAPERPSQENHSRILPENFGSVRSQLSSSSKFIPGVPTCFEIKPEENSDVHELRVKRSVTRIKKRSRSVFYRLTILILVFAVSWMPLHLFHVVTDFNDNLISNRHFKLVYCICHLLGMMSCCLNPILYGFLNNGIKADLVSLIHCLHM
As to the kind of experiment: Binding affinity to human neuropeptide Y receptor type 5 receptor expressed in HEC-1B cells using Cy5-pNPY by flow cytometric analysis. In kind it is cell-based. For orientation: Flow cytometry measures light scatter and fluorescence of single cells or particles in a stream.

Assay [4] has as its target T4, Neuropeptide Y receptor type 1 (Homo sapiens, UniProt P25929).
T4 sequence (P25929 whole entry): T2 sequence (whole entry)
As to the kind of experiment: Displacement of [3H]UR-MK114 from human neuropeptide Y receptor type 1 expressed in human MCF7 cells. Type of assay: cell-based. Background: Displacement assays read how much labelled ligand stays bound in the presence of the test substance.

The target of assay [5] is T4, Neuropeptide Y receptor type 1. As to the kind of experiment: Displacement of [3H]UR-MK114 from human neuropeptide Y receptor type 1 expressed in human SK-N-MC cells. In kind it is cell-based.
For assay [6], the target named is T5, Neuropeptide Y receptor type 2 (Homo sapiens, UniProt P49146).
T5 sequence (P49146 whole entry): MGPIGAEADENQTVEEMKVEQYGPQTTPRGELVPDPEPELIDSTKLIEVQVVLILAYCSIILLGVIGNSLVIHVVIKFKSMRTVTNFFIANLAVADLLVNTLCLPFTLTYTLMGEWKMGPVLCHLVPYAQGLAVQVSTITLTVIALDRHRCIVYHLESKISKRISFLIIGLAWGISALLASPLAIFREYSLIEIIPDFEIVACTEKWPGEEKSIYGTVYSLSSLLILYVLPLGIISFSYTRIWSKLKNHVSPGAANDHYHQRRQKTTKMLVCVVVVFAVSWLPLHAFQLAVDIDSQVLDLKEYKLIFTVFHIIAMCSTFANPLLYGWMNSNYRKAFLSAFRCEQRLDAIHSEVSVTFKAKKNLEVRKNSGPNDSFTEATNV
As to the kind of experiment: Binding affinity to human neuropeptide Y receptor type 2 receptor expressed in CHO cells using Cy5-pNPY by flow cytometric analysis. Type of assay: cell-based.

For assay [7], the target named is T1, Neuropeptide Y receptor type 4. As to the kind of experiment: Binding affinity to human neuropeptide Y receptor type 4 receptor expressed in CHO cells using Cy5-[K4]-hPP by flow cytometric analysis. In kind it is cell-based.

T1 sequence (P50391 whole entry): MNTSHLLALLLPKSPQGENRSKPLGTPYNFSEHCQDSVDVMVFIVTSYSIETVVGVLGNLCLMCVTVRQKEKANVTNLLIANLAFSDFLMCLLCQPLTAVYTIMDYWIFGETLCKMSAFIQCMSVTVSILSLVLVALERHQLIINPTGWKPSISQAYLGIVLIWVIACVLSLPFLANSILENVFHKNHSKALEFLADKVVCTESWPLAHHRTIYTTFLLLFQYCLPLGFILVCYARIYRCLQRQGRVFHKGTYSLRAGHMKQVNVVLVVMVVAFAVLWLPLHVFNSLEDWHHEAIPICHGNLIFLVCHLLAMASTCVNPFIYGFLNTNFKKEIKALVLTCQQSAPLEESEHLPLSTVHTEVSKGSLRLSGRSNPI

Turning to `NCCN(CCNC(=O)CCC(=O)NCCOCCOCCNC(=O)/N=C(/N)NCCC[C@@H](NC(=O)C(c1ccccc1)c1ccccc1)C(=O)NCc1ccc(CNC(N)=O)cc1)CCNC(=O)CCC(=O)NCCOCCOCCNC(=O)/N=C(/N)NCCC[C@@H](NC(=O)C(c1ccccc1)c1ccccc1)C(=O)NCc1ccc(CNC(N)=O)cc1`, the antagonist equilibrium constant (Kb) was determined as 0.096 µM in assay [1] and 0.0042 µM in assay [2]. The inhibition constant (Ki) was > 5 µM in assay [3]; 0.21 µM in assay [4]; 0.23 µM in assay [5]; 4 µM in assay [6]; 0.29 µM in assay [7].
For `N=C(N)NCCC[C@@H](NC(=O)C(c1ccccc1)c1ccccc1)C(=O)NCc1ccc(CNC(=O)NCCCCNC(=O)CCCC(=O)NCCN(CCN)CCNC(=O)CCCC(=O)NCCCCNC(=O)NCc2ccc(CNC(=O)[C@@H](CCCNC(=N)N)NC(=O)C(c3ccccc3)c3ccccc3)cc2)cc1`, the Kb was > 5 µM in assay [1] and 0.12 µM in assay [2]. Besides, the Ki is > 5 µM in assay [3]; 0.43 µM in assay [4]; 0.33 µM in assay [5]; > 5 µM in assay [6]; 3.5 µM in assay [7].
Regarding `N/C(=N/C(=O)CCCCCCC(=O)/N=C(\N)NCCC[C@@H](NC(=O)C(c1ccccc1)c1ccccc1)C(=O)NCc1ccc(O)cc1)NCCC[C@@H](NC(=O)C(c1ccccc1)c1ccccc1)C(=O)NCc1ccc(O)cc1`, the values for the Kb in assay [1] and in assay [2] were 0.098 µM and 0.0035 µM, respectively.
Turning to `NCCN(CCNC(=O)CCC(=O)NCCCCCCNC(=O)/N=C(\N)NCCC[C@H](NC(=O)CC1(CC(=O)N2CCN(C3c4ccccc4NC(=O)c4ccccc43)CC2)CCCC1)C(=O)NCCn1c(=O)n(-c2ccccc2)n(-c2ccccc2)c1=O)CCNC(=O)CCC(=O)NCCCCCCNC(=O)/N=C(\N)NCCC[C@@H](NC(=O)C(c1ccccc1)c1ccccc1)C(=O)NCc1ccc(O)cc1` (mixture of isomers), the antagonist equilibrium constant (Kb) in assay [1] was determined as 0.072 µM; in assay [2] it was 0.0015 µM. The Ki in assay [3] was > 5 µM; in assay [4] it was 0.26 µM; in assay [5], 0.23 µM; in assay [6], 0.085 µM; in assay [7], 0.91 µM.
For the compound `NCCN(CCNC(=O)CCCC(=O)NCCOCCOCCNC(=O)/N=C(/N)NCCC[C@@H](NC(=O)C(c1ccccc1)c1ccccc1)C(=O)NCc1ccc(O)cc1)CCNC(=O)CCCC(=O)NCCOCCOCCNC(=O)/N=C(/N)NCCC[C@@H](NC(=O)C(c1ccccc1)c1ccccc1)C(=O)NCc1ccc(O)cc1`, the Kb in assay [1] came to 0.044 µM. Besides, the Ki in assay [3] is > 5 µM; in assay [4] it was 0.05 µM; in assay [5] it was 0.029 µM; in assay [6] it was 1.5 µM; in assay [7] it was 0.29 µM.
Turning to `NCCN(CCNC(=O)CCC(=O)NCCOCCOCCNC(=O)/N=C(/N)NCCC[C@@H](NC(=O)C(c1ccccc1)c1ccccc1)C(=O)NCc1ccc(O)cc1)CCNC(=O)CCC(=O)NCCOCCOCCNC(=O)/N=C(/N)NCCC[C@@H](NC(=O)C(c1ccccc1)c1ccccc1)C(=O)NCc1ccc(O)cc1`, the Kb in assay [1] stood at 0.041 µM; in assay [2], 0.0011 µM. For the same compound, the Ki was > 5 µM in assay [3]; 0.037 µM in assay [4]; 0.025 µM in assay [5]; 1.8 µM in assay [6]; 0.47 µM in assay [7].
In the case of `NCCOCCOCCNC(=O)/N=C(/N)NCCC[C@H](NC(=O)C(c1ccccc1)c1ccccc1)C(=O)NCc1ccc(CNC(N)=O)cc1`, the Kb in assay [1] and in assay [2] was > 5 µM in each case. For the same compound, the Ki in assay [5] and in assay [7] was > 5 µM throughout.
As for `NCCN(CCNC(=O)CCCC(=O)/N=C(/N)NCCC[C@@H](NC(=O)C(c1ccccc1)c1ccccc1)C(=O)NCc1ccc(O)cc1)CCNC(=O)CCCC(=O)/N=C(/N)NCCC[C@@H](NC(=O)C(c1ccccc1)c1ccccc1)C(=O)NCc1ccc(O)cc1`, the antagonist dissociation constant (Kb) in assay [1] is 0.073 µM; in assay [2], 0.0042 µM. Besides, the Ki in assay [3] was > 5 µM; in assay [5], 0.03 µM; in assay [6], 0.62 µM; in assay [7] it was 0.39 µM.
With `NCCC(=O)NCCNC(=O)CCC(=O)NCCNC(=O)CCC(=O)NCCNC(=O)/N=C(\N)NCCC[C@H](NC(=O)C(c1ccccc1)c1ccccc1)C(=O)NCc1ccc(CNC(N)=O)cc1`, the Kb in assay [1] is > 5 µM. Besides, the Ki in assay [3] was > 5 µM; in assay [5], > 5 µM; in assay [6], > 5 µM; in assay [7], 3.5 µM.
Consider `NCCN(CCNC(=O)c1ccc(C(=O)NCCOCCOCCNC(=O)/N=C(/N)NCCC[C@@H](NC(=O)C(c2ccccc2)c2ccccc2)C(=O)NCc2ccc(O)cc2)cc1)CCNC(=O)c1ccc(C(=O)NCCOCCOCCNC(=O)/N=C(/N)NCCC[C@@H](NC(=O)C(c2ccccc2)c2ccccc2)C(=O)NCc2ccc(O)cc2)cc1`, for which the values for the antagonist equilibrium constant (Kb) in assay [1] and in assay [2] were 0.02 µM and 0.00025 µM, respectively. The Ki in assay [3] is > 5 µM; in assay [4] it was 0.048 µM; in assay [7], 0.13 µM.
`CCC(=O)NCCN(CCNC(=O)c1ccc(C(=O)NCCOCCOCCNC(=O)/N=C(/N)NCCC[C@@H](NC(=O)C(c2ccccc2)c2ccccc2)C(=O)NCc2ccc(O)cc2)cc1)CCNC(=O)c1ccc(C(=O)NCCOCCOCCNC(=O)/N=C(/N)NCCC[C@@H](NC(=O)C(c2ccccc2)c2ccccc2)C(=O)NCc2ccc(O)cc2)cc1`: the antagonist dissociation constant (Kb) in assay [1] amounted to 0.036 µM. Besides, the Ki is > 5 µM in assay [3]; 0.11 µM in assay [4]; 0.064 µM in assay [5]; > 5 µM in assay [6]; 0.41 µM in assay [7].
For `NCCN(CCNC(=O)CCC(=O)NCCCCCCNC(=O)/N=C(/N)NCCC[C@@H](NC(=O)C(c1ccccc1)c1ccccc1)C(=O)NCc1ccc(O)cc1)CCNC(=O)CCC(=O)NCCCCCCNC(=O)/N=C(/N)NCCC[C@@H](NC(=O)C(c1ccccc1)c1ccccc1)C(=O)NCc1ccc(O)cc1`, in assay [1], the antagonist equilibrium constant (Kb) was 0.033 µM. Besides, the inhibition constant Ki in assay [3] was > 5 µM; in assay [5], 0.04 µM; in assay [6] it was 1.3 µM; in assay [7] it was 0.27 µM.
For `NCCN(CCNC(=O)CCC(=O)NCCOCCOCCNC(=O)/N=C(/N)NCCC[C@H](NC(=O)C(c1ccccc1)c1ccccc1)C(=O)NCc1ccc(CNC(N)=O)cc1)CCNC(=O)CCC(=O)NCCOCCOCCNC(=O)/N=C(/N)NCCC[C@H](NC(=O)C(c1ccccc1)c1ccccc1)C(=O)NCc1ccc(CNC(N)=O)cc1`, the antagonist equilibrium constant (Kb) in assay [1] stood at 0.14 µM; in assay [2], 0.11 µM. Besides, the Ki is > 5 µM in assay [3], 3.1 µM in assay [5], 1.1 µM in assay [6] and 0.31 µM in assay [7].
In the case of `NCCN(CCNC(=O)c1ccc(C(=O)NCCOCCOCCNC(=O)/N=C(/N)NCCC[C@H](NC(=O)C(c2ccccc2)c2ccccc2)C(=O)NCc2ccc(O)cc2)cc1)CCNC(=O)c1ccc(C(=O)NCCOCCOCCNC(=O)/N=C(/N)NCCC[C@H](NC(=O)C(c2ccccc2)c2ccccc2)C(=O)NCc2ccc(O)cc2)cc1`, the antagonist dissociation constant (Kb) in assay [1] was 0.027 µM. Also, the Ki in assay [3] was > 5 µM; in assay [5], > 5 µM; in assay [6], 1.4 µM; in assay [7], 0.26 µM.
